Experimental data published in PubChem BioAssay AID1918946 (Molecular Pharmacology Branch, DTP, NCI, 2023).

System: 885512-296-R-J2-PDC complex spheroid viability
Assay: Anticancer human tumor 885512-296-R-J2-PDC patient-derived breast carcinoma cell line growth inhibition
Details: for IC50: curve of first compound; for viability, T/C: stronger effect = lower value
In short: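 Drug combinations with the LSD1 inhibitor iadademstat tested on tumor cells co-cultured as spheroids with endothelial cells and mesenchymal stem cells. Concentrations descended in half-log increments from clinical Cmax or 10 microM.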

[1] = second compound 0.1 µM, first compound 0.00316 µM
[2] = second compound 0.1 µM, first compound 0.01 µM
[3] = second compound 0.1 µM, first compound 0.0316 µM
[4] = second compound 0.1 µM, first compound 0.1 µM
[5] = second compound 0.316 µM, first compound 0.00316 µM
[6] = second compound 0.316 µM, first compound 0.01 µM
[7] = second compound 0.316 µM, first compound 0.0316 µM
[8] = second compound 0.316 µM, first compound 0.1 µM
[9] = second compound 1 µM, first compound 0.00316 µM
[10] = second compound 1 µM, first compound 0.01 µM
[11] = second compound 1 µM, first compound 0.0316 µM
[12] = second compound 1 µM, first compound 0.1 µM
[13] = second compound 3.16 µM, first compound 0.00316 µM
[14] = second compound 3.16 µM, first compound 0.01 µM
[15] = second compound 3.16 µM, first compound 0.0316 µM
[16] = second compound 3.16 µM, first compound 0.1 µM
[17] = second compound 10 µM, first compound 0.00316 µM
[18] = second compound 10 µM, first compound 0.01 µM
[19] = second compound 10 µM, first compound 0.0316 µM
[20] = second compound 10 µM, first compound 0.1 µM
[21] = second compound 0.1 µM, first compound 0.00949 µM
[22] = second compound 0.1 µM, first compound 0.03 µM
[23] = second compound 0.1 µM, first compound 0.0949 µM
[24] = second compound 0.1 µM, first compound 0.3 µM
[25] = second compound 0.1 µM, first compound 0.949 µM
[26] = second compound 0.1 µM, first compound 3 µM
[27] = second compound 0.316 µM, first compound 0.00949 µM
[28] = second compound 0.316 µM, first compound 0.03 µM
[29] = second compound 0.316 µM, first compound 0.0949 µM
[30] = second compound 0.316 µM, first compound 0.3 µM
[31] = second compound 0.316 µM, first compound 0.949 µM
[32] = second compound 0.316 µM, first compound 3 µM
[33] = second compound 1 µM, first compound 0.00949 µM
[34] = second compound 1 µM, first compound 0.03 µM
[35] = second compound 1 µM, first compound 0.0949 µM
[36] = second compound 1 µM, first compound 0.3 µM
[37] = second compound 1 µM, first compound 0.949 µM
[38] = second compound 1 µM, first compound 3 µM
[39] = second compound 3.16 µM, first compound 0.00949 µM
[40] = second compound 3.16 µM, first compound 0.03 µM
[41] = second compound 3.16 µM, first compound 0.0949 µM
[42] = second compound 3.16 µM, first compound 0.3 µM
[43] = second compound 3.16 µM, first compound 0.949 µM
[44] = second compound 3.16 µM, first compound 3 µM
[45] = second compound 10 µM, first compound 0.00949 µM
[46] = second compound 10 µM, first compound 0.03 µM
[47] = second compound 10 µM, first compound 0.0949 µM
[48] = second compound 10 µM, first compound 0.3 µM
[49] = second compound 10 µM, first compound 0.949 µM
[50] = second compound 10 µM, first compound 3 µM
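Note: spheroids exposed to agents for 7 days before viability read.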

COc1cc(Nc2ncc3c(n2)-c2ccc(Cl)cc2C(c2c(F)cccc2OC)=NC3)ccc1C(=O)O + NC1CCC(NC2CC2c2ccccc2)CC1
IC50 (second compound 0.1 µM): 8.96 nM | IC50 (second compound 0.316 µM): 7.35 nM | IC50 (second compound 1 µM): 7.37 nM | IC50 (second compound 3.16 µM): 9.53 nM | IC50 (second compound 10 µM): 5.12 nM | viability, T/C [1]: 78.8% | viability, T/C [2]: 42.8% | viability, T/C [3]: 33.2% | viability, T/C [4]: 24% | viability, T/C (second compound 0.1 µM, first compound 0.316 µM): 12.3% | viability, T/C (second compound 0.1 µM, first compound 1 µM): 13.2% | viability, T/C [5]: 90.6% | viability, T/C [6]: 31.3% | viability, T/C [7]: 34.2% | viability, T/C [8]: 39.1% | viability, T/C (second compound 0.316 µM, first compound 0.316 µM): 14.5% | viability, T/C (second compound 0.316 µM, first compound 1 µM): 11.5% | viability, T/C [9]: 90.9% | viability, T/C [10]: 29.4% | viability, T/C [11]: 37.3% | viability, T/C [12]: 22.1% | viability, T/C (second compound 1 µM, first compound 0.316 µM): 17.5% | viability, T/C (second compound 1 µM, first compound 1 µM): 13.2% | viability, T/C [13]: 87.4% | viability, T/C [14]: 42.1% | viability, T/C [15]: 33.7% | viability, T/C [16]: 38.1% | viability, T/C (second compound 3.16 µM, first compound 0.316 µM): 14.6% | viability, T/C (second compound 3.16 µM, first compound 1 µM): 16.6% | viability, T/C [17]: 70.5% | viability, T/C [18]: 21.4% | viability, T/C [19]: 29.7% | viability, T/C [20]: 22.7% | viability, T/C (second compound 10 µM, first compound 0.316 µM): 17.1% | viability, T/C (second compound 10 µM, first compound 1 µM): 15.3%

Cn1ncnc1C1c2n[nH]c(=O)c3cc(F)cc(c23)NC1c1ccc(F)cc1 (stereo not given) + NC1CCC(NC2CC2c2ccccc2)CC1
IC50 (second compound 0.1 µM): 16 nM | IC50 (second compound 0.316 µM): 25 nM | IC50 (second compound 1 µM): 27.6 nM | IC50 (second compound 3.16 µM): 27.3 nM | IC50 (second compound 10 µM): 14.2 nM | viability, T/C (second compound 0.1 µM, first compound 0.000316 µM): 140% | viability, T/C (second compound 0.1 µM, first compound 0.001 µM): 105% | viability, T/C [1]: 77.6% | viability, T/C [2]: 67.2% | viability, T/C [3]: 37.7% | viability, T/C [4]: 10.2% | viability, T/C (second compound 0.316 µM, first compound 0.000316 µM): 122% | viability, T/C (second compound 0.316 µM, first compound 0.001 µM): 113% | viability, T/C [5]: 81.6% | viability, T/C [6]: 79% | viability, T/C [7]: 44% | viability, T/C [8]: 13.3% | viability, T/C (second compound 1 µM, first compound 0.000316 µM): 108% | viability, T/C (second compound 1 µM, first compound 0.001 µM): 105% | viability, T/C [9]: 89.6% | viability, T/C [10]: 76.7% | viability, T/C [11]: 44.6% | viability, T/C [12]: 28.5% | viability, T/C (second compound 3.16 µM, first compound 0.000316 µM): 106% | viability, T/C (second compound 3.16 µM, first compound 0.001 µM): 104% | viability, T/C [13]: 86.1% | viability, T/C [14]: 75.2% | viability, T/C [15]: 44.5% | viability, T/C [16]: 28.6% | viability, T/C (second compound 10 µM, first compound 0.000316 µM): 92% | viability, T/C (second compound 10 µM, first compound 0.001 µM): 85% | viability, T/C [17]: 72% | viability, T/C [18]: 56.8% | viability, T/C [19]: 36% | viability, T/C [20]: 18.6%

NS(=O)(=O)OCC1CC(n2ccc3c(NC4CCc5ccccc54)ncnc32)CC1O (stereo not given) + NC1CCC(NC2CC2c2ccccc2)CC1
IC50 (second compound 0.1 µM): < 9.49 nM | IC50 (second compound 0.316 µM): < 9.49 nM | IC50 (second compound 1 µM): < 9.49 nM | IC50 (second compound 3.16 µM): < 9.49 nM | IC50 (second compound 10 µM): < 9.49 nM | viability, T/C [21]: 16.7% | viability, T/C [22]: 7.98% | viability, T/C [23]: 5.83% | viability, T/C [24]: 2.1% | viability, T/C [25]: 8.58% | viability, T/C [26]: 9.25% | viability, T/C [27]: 12.9% | viability, T/C [28]: 8.7% | viability, T/C [29]: 7.27% | viability, T/C [30]: 5.01% | viability, T/C [31]: 6.94% | viability, T/C [32]: 6.92% | viability, T/C [33]: 16.3% | viability, T/C [34]: 8.77% | viability, T/C [35]: 4.53% | viability, T/C [36]: 4.31% | viability, T/C [37]: 1.23% | viability, T/C [38]: 6.71% | viability, T/C [39]: 14.2% | viability, T/C [40]: 8.91% | viability, T/C [41]: 3.64% | viability, T/C [42]: 1.52% | viability, T/C [43]: 4.11% | viability, T/C [44]: 3.57% | viability, T/C [45]: 10.2% | viability, T/C [46]: 5.83% | viability, T/C [47]: 2.78% | viability, T/C [48]: 1.64% | viability, T/C [49]: 1.08% | viability, T/C [50]: 0.82%

O=C(C=Cc1cccc(S(=O)(=O)Nc2ccccc2)c1)NO + NC1CCC(NC2CC2c2ccccc2)CC1
IC50 (second compound 0.1 µM): 74.6 nM | IC50 (second compound 0.316 µM): 84.5 nM | IC50 (second compound 1 µM): 84.7 nM | IC50 (second compound 3.16 µM): 70.7 nM | IC50 (second compound 10 µM): 50 nM | viability, T/C [21]: 104% | viability, T/C [22]: 80.2% | viability, T/C [23]: 42.8% | viability, T/C [24]: 19.8% | viability, T/C [25]: 13.6% | viability, T/C [26]: 17.1% | viability, T/C [27]: 112% | viability, T/C [28]: 87.6% | viability, T/C [29]: 45.6% | viability, T/C [30]: 22.4% | viability, T/C [31]: 15.7% | viability, T/C [32]: 14.6% | viability, T/C [33]: 108% | viability, T/C [34]: 84.4% | viability, T/C [35]: 47.1% | viability, T/C [36]: 19.9% | viability, T/C [37]: 12.3% | viability, T/C [38]: 11.9% | viability, T/C [39]: 90.2% | viability, T/C [40]: 69.2% | viability, T/C [41]: 43.8% | viability, T/C [42]: 24.1% | viability, T/C [43]: 12.7% | viability, T/C [44]: 12.7% | viability, T/C [45]: 90.8% | viability, T/C [46]: 65.5% | viability, T/C [47]: 30.6% | viability, T/C [48]: 17.3% | viability, T/C [49]: 8.4% | viability, T/C [50]: 16.5%
